From the NIST ThermoML archive (doi:10.1021/je050200w)
± gives the expanded uncertainty stated by the source.

Assay: xn = mol fraction of the nth substance listed
Details: 101 kPa, Liquid

CCCCCCCCCO [nonan-1-ol] + CCCCCCCCCCO
Details	mass density [kg/m3]	viscosity [mPa·s]
283.15 K, x1 = 0.1009	836.5 ± 0.6	21.5 ± 0.56
283.15 K, x1 = 0.2	836.4 ± 0.6	21.12 ± 0.55
283.15 K, x1 = 0.3	836.2 ± 0.7	20.65 ± 0.54
283.15 K, x1 = 0.4002	836 ± 0.7	20.15 ± 0.53
283.15 K, x1 = 0.5001	835.9 ± 0.7	19.71 ± 0.53
283.15 K, x1 = 0.6003	835.7 ± 0.8	19.17 ± 0.52
283.15 K, x1 = 0.6996	835.6 ± 0.8	18.59 ± 0.5
283.15 K, x1 = 0.7999	835.4 ± 0.9	18.14 ± 0.5
283.15 K, x1 = 0.9047	835.2 ± 0.9	17.78 ± 0.49
283.15 K, x1 = 1	835 ± 0.9	17.44 ± 0.48
288.15 K, x1 = 0.1009	833.2 ± 0.6	17.44 ± 0.46
288.15 K, x1 = 0.2	833 ± 0.6	17.06 ± 0.46
288.15 K, x1 = 0.3	832.8 ± 0.7	16.69 ± 0.45
288.15 K, x1 = 0.3999	832.7 ± 0.7	16.2 ± 0.44
288.15 K, x1 = 0.5001	832.5 ± 0.7	15.82 ± 0.43
288.15 K, x1 = 0.6003	832.3 ± 0.8	15.44 ± 0.42
288.15 K, x1 = 0.6996	832.2 ± 0.8	15.2 ± 0.42
288.15 K, x1 = 0.7999	832 ± 0.9	14.85 ± 0.41
288.15 K, x1 = 0.9047	831.8 ± 0.9	14.48 ± 0.41
288.15 K, x1 = 1	831.5 ± 0.9	14.27 ± 0.4
293.15 K, x1 = 0.1009	829.8 ± 0.6	14.1 ± 0.38
293.15 K, x1 = 0.2	829.6 ± 0.6	13.73 ± 0.38
293.15 K, x1 = 0.3	829.5 ± 0.7	13.5 ± 0.37
293.15 K, x1 = 0.3999	829.3 ± 0.7	13.22 ± 0.37
293.15 K, x1 = 0.5	829.1 ± 0.7	13 ± 0.36
293.15 K, x1 = 0.6003	829 ± 0.8	12.48 ± 0.35
293.15 K, x1 = 0.6996	828.8 ± 0.8	12.36 ± 0.35
293.15 K, x1 = 0.7999	828.6 ± 0.9	12.09 ± 0.34
293.15 K, x1 = 0.9047	828.4 ± 0.9	11.83 ± 0.34
293.15 K, x1 = 1	828.1 ± 0.9	11.63 ± 0.34
298.15 K, x1 = 0.1009	826.4 ± 0.6	11.52 ± 0.32
298.15 K, x1 = 0.2	826.2 ± 0.6	11.36 ± 0.32
298.15 K, x1 = 0.3	826.1 ± 0.7	11.13 ± 0.31
298.15 K, x1 = 0.4002	825.9 ± 0.7	10.87 ± 0.31
298.15 K, x1 = 0.5	825.7 ± 0.7	10.62 ± 0.3
298.15 K, x1 = 0.6003	825.5 ± 0.8	10.38 ± 0.3
298.15 K, x1 = 0.6996	825.4 ± 0.8	10.17 ± 0.3
298.15 K, x1 = 0.7999	825.1 ± 0.9	9.933 ± 0.29
298.15 K, x1 = 0.9047	824.9 ± 0.9	9.725 ± 0.29
298.15 K, x1 = 1	824.7 ± 0.9	9.519 ± 0.28
303.15 K, x1 = 0.1009	822.9 ± 0.6	9.398 ± 0.27
303.15 K, x1 = 0.2	822.8 ± 0.6	9.242 ± 0.27
303.15 K, x1 = 0.3	822.6 ± 0.7	9.083 ± 0.26
303.15 K, x1 = 0.4002	822.4 ± 0.7	8.886 ± 0.26
303.15 K, x1 = 0.5001	822.2 ± 0.7	8.703 ± 0.26
303.15 K, x1 = 0.6003	822 ± 0.8	8.504 ± 0.25
303.15 K, x1 = 0.6996	821.9 ± 0.8	8.332 ± 0.25
303.15 K, x1 = 0.7999	821.7 ± 0.9	8.16 ± 0.25
303.15 K, x1 = 0.9047	821.5 ± 0.9	7.929 ± 0.24
303.15 K, x1 = 1	821.3 ± 0.9	7.806 ± 0.24
308.15 K, x1 = 0.1009	819.5 ± 0.6	7.867 ± 0.23
308.15 K, x1 = 0.2	819.4 ± 0.6	7.739 ± 0.23
308.15 K, x1 = 0.3	819.1 ± 0.7	7.613 ± 0.23
308.15 K, x1 = 0.4002	819 ± 0.7	7.453 ± 0.23
308.15 K, x1 = 0.5	818.8 ± 0.7	7.307 ± 0.22
308.15 K, x1 = 0.6003	818.6 ± 0.8	7.151 ± 0.22
308.15 K, x1 = 0.6996	818.5 ± 0.8	7.014 ± 0.22
308.15 K, x1 = 0.7999	818.3 ± 0.9	6.857 ± 0.21
308.15 K, x1 = 0.9047	818 ± 0.9	6.693 ± 0.21
308.15 K, x1 = 1	817.8 ± 0.9	6.604 ± 0.21
313.15 K, x1 = 0.1009	816.1 ± 0.6	6.704 ± 0.21
313.15 K, x1 = 0.2	815.9 ± 0.6	6.629 ± 0.2
313.15 K, x1 = 0.3	815.7 ± 0.7	6.517 ± 0.2
313.15 K, x1 = 0.4002	815.6 ± 0.7	6.4 ± 0.2
313.15 K, x1 = 0.5001	815.3 ± 0.7	6.234 ± 0.2
313.15 K, x1 = 0.6003	815.2 ± 0.8	6.15 ± 0.2
313.15 K, x1 = 0.6996	815 ± 0.8	6.026 ± 0.19
313.15 K, x1 = 0.7999	814.8 ± 0.9	5.87 ± 0.19
313.15 K, x1 = 0.9047	814.5 ± 0.9	5.779 ± 0.19
313.15 K, x1 = 1	814.3 ± 0.9	5.668 ± 0.19
